Measurements reported in US12144795B2, “Cannabidiol compositions having modified cannabinoid profiles” (priority 2018, dated 2024).
Read-outs that look alike come from different tables or passages of the source.

Experiments:
[1] = Vapor-diffusion-into-solution crystallization, solid form after evaporation; format: physicochemical
Excerpt: The open vials were placed in a larger container with anti-solvent and the vapors were allowed to diffuse into the cannabidiol solution for two weeks. The effect of the anti-solvent, however, was too low to induce any precipitation of cannabidiol and, therefore, it was decided to evaporate the mother liquors and analyze the remaining solids. Crystalline solid was only found after evaporation of the Toluene/2,2,4-Trimethylepentane solution.

[2] = Solubility of CBD in crude CBD mother liquor and heptane as a function of temperature (Crystal 16); conditions: CBD concentration of ca. 296 mg/ml (3.5 L/kg), crude CBD mother liquor
Excerpt: To determine an appropriate seeding temperature of CBD, a Crystal 16 instrument was employed to measure the solubility in crude CBD mother liquor, a mixture of heptane and process impurities, and pure heptane.

[3] = Evaporative crystallization from solvent mixtures, form by HT-XRPD before and after AAC; format: physicochemical; conditions: Acetonitrile / Water (50/50, v/v)
Method: Recrystallization experiments were conducted to screen for potential CBD polymorphs and evaluate the ability of the recrystallized CBD to expel impurities. The following recrystallization methods were undertaken: • evaporative crystallization from solvent mixtures; • antisolvent crystallization; • cooling crystallization; • single solvent drop grinding; • crystallization by crash-cooling; • vapor-diffusion-into-solution crystallization; and • crystallization by liquid diffusion. In each method, the starting material consisted of crystallized CBD of form A. Evaporative Crystallization from Solvent Mixtures
Without wishing to be bound by theory, the general principle behind evaporative crystallization using solvent anti-solvent mixtures is that the solvent evaporates, first causing the API to precipitate to some extent, and this material then acts as a seed, when the anti-solvent is evaporated. The first evaporation step is slow and is followed by a faster final evaporation phase. All crystalline samples were Form A both before and after the solids were exposed to accelerated ageing conditions. An oil-like substance was obtained from an acetonitrile/water solvent mixture that could not be analyzed by XRPD; therefore, this sample was not exposed to accelerated aging conditions.

[4] = Crash cooling crystallization, XRPD before and after AAC; format: physicochemical; conditions: for Dissolved at start / Solids after T profile / Solid form by HT-XRPD Evaporation of ML Before: 50 mg/mL
Method: As a variation on the above cooling crystallization experiments, several crash cooling crystallization were performed. In order to modulate the solubility of cannabidiol, crash cooling experiments were performed in solvent mixtures. Clear solutions of 50 mg/mL of cannabidiol were prepared in solvent mixtures and rapidly cooled in an ice bath. Vials were then placed at −20° C. for 48 hours. Precipitated solids and mother liquors were treated as described above for the ordinary cooling crystallization experiments. Only from heptane/pentane cooling did there result in the precipitation of a solid. […] When no XRPD record was generated, the field is defined as “Not Applicable” (N/A) in Table 29.

[5] = format: physicochemical
[6] = solvent 1,4-Dioxane, anti-solvent 2,2,4-Trimethylpentane
[7] = solvent 1,4-Dioxane, anti-solvent Water
[8] = solvent 2-Methoxyethanol, anti-solvent 2,2,4-Trimethylpentane
[9] = solvent 4-methyl-2-pentanone, anti-solvent 2,2,4-Trimethylpentane
[10] = solvent Acetonitrile, anti-solvent Water
[11] = solvent Ethyl acetate, anti-solvent 2,2,4-Trimethylpentane
[12] = solvent Isobutanol, anti-solvent Water
[13] = solvent Isopropanol, anti-solvent Water
[14] = solvent Tetrahydrofuran, anti-solvent Water
[15] = 1 month Accelerated 40° C./75% RH
[16] = 1.5 months Accelerated 40° C./75% RH
[17] = 2 months Accelerated 40° C./75% RH
[18] = 3 months Accelerated 40° C./75% RH
[19] = 5 months Accelerated 40° C./75% RH
[20] = 6 months Accelerated 40° C./75% RH

With `C=C(C)[C@@H]1CCC(C)=C[C@H]1c1c(O)cc(CCCCC)cc1O` [CBD, (1′R,2′R)-5′-methyl-4-pentyl-2′-(prop-1-en-2-yl)-1′,2′,3′,4′-tetrahydro-[1,1′-biphenyl]-2,6-diol] the “Effect of accelerated aging conditions” value [1] was “no effect on the physical appearance”, the “XRPD of solid after evaporation” value ([1]; Toluene/2,2,4-Trimethylepentane solution) was “Form A” and the “Precipitation?” value [1, 6] was “No”. The “Solid form after evaporation After AAC” value [1, 6] was “Oil”, the “Solid form after evaporation Before AAC” value [1, 6] was “Oil” and the “Precipitation?” value [1, 7] was “No”. For the same molecule, the “Solid form after evaporation After AAC” value [1, 7] was “Oil”, the “Solid form after evaporation Before AAC” value [1, 7] was “Oil” and the “Precipitation?” value [1, 8] was “No”. The “Solid form after evaporation After AAC” value [1, 8] was “Oil”, the “Solid form after evaporation Before AAC” value [1, 8] was “Oil” and the “Precipitation?” value [1, 9] was “No”. The “Solid form after evaporation After AAC” value [1, 9] was “Oil”, the “Solid form after evaporation Before AAC” value [1, 9] was “Oil” and the “Precipitation?” value [1, 10] was “No”. For the same molecule, the “Solid form after evaporation After AAC” value [1, 10] was “Oil”, the “Solid form after evaporation Before AAC” value [1, 10] was “Oil” and the “Precipitation?” value [1, 11] was “No”. For the same molecule, the “Solid form after evaporation After AAC” value [1, 11] was “Oil”, the “Solid form after evaporation Before AAC” value [1, 11] was “Oil” and the “Precipitation?” value [1, 12] was “No”. The “Solid form after evaporation After AAC” value [1, 12] was “Oil”, the “Solid form after evaporation Before AAC” value [1, 12] was “Oil” and the “Precipitation?” value [1, 13] was “No”. The “Solid form after evaporation After AAC” value [1, 13] was “Oil”, the “Solid form after evaporation Before AAC” value [1, 13] was “Oil” and the “Precipitation?” value [1, 14] was “No”. For the same molecule, the “Solid form after evaporation After AAC” value [1, 14] was “Oil”, the “Solid form after evaporation Before AAC” value [1, 14] was “Oil” and the “Precipitation?” value ([1]; solvent Toluene, anti-solvent 2,2,4-Trimethylpentane) was “No”. For the same molecule, the “solubility temperature of CBD” value [2] was 29-30 °C, the “Form by HT-XRPD Before AAC” value [3] was “Oily” and the Dissolved at start ([4]; 1,4-Dioxane/Water (80/20)) was “Yes”. For the same molecule, the “Solids after T profile” value ([4]; 1,4-Dioxane/Water (80/20)) was “No”, the “Effect of accelerated aging conditions” value ([4]; 40° C./75% RH for two days) was “no effect on the physical appearance” and the Dissolved at start ([4]; Acetone/2,2,4-Trimethylpentane) was “Yes”. For the same molecule, the “Solids after T profile” value ([4]; Acetone/2,2,4-Trimethylpentane) was “No”, the Dissolved at start ([4]; Acetone/Water (80/20)) was “Yes” and the “Solid form by HT-XRPD Evaporation of ML Before” value (shortened to “Solid form … of ML Before”) ([4]; Acetone/Water (80/20)) was “Oily”. The “Solids after T profile” value ([4]; Acetone/Water (80/20)) was “No”, the Dissolved at start ([4]; Acetonitrile/Water (80/20)) was “Yes” and the “Solids after T profile” value ([4]; Acetonitrile/Water (80/20)) was “No”. For the same molecule, the Dissolved at start ([4]; Chloroform/Hexane (50/50)) was “Yes”, the “Solids after T profile” value ([4]; Chloroform/Hexane (50/50)) was “No” and the Dissolved at start ([4]; Ethanol/2,2,4-Trimethylpentane) was “Yes”. For the same molecule, the “Solids after T profile” value ([4]; Ethanol/2,2,4-Trimethylpentane) was “No”, the Dissolved at start ([4]; Ethyl formate/Decane) was “Yes” and the “Solid form … of ML Before” value ([4]; Ethyl formate/Decane) was “Oily”. The “Solids after T profile” value ([4]; Ethyl formate/Decane) was “No”, the Dissolved at start ([4]; Heptane/Pentane (50/50)) was “Yes” and the “Solids after T profile” value ([4]; Heptane/Pentane (50/50)) was “Yes”. The Dissolved at start ([4]; Isopropanol/Decane (50/50)) was “Yes”, the “Solids after T profile” value ([4]; Isopropanol/Decane (50/50)) was “No” and the Dissolved at start ([4]; Tetrahydrofuran/Water (80/20)) was “Yes”. For the same molecule, the “Solid form … of ML Before” value ([4]; Tetrahydrofuran/Water (80/20)) was “Oily”, the “Solids after T profile” value ([4]; Tetrahydrofuran/Water (80/20)) was “No” and the “Polymorphic form of precipitated solid” value ([4]; heptane/pentane, crash cooling, −20° C. for 48 hours) was “same polymorphic form as the starting material Form A”. For the same molecule, the “Chromatographic Purity: 4-Monobromo-cannabidiol” value ([5]; 0 month) was <0.03%, the “Chromatographic Purity: Individual unspecified impurity” value ([5]; 0 month) was <0.03% and the “Chromatographic Purity: Olivetol” value ([5]; 0 month) was <0.03%. For the same molecule, the “Chromatographic Purity: Sum of impurities” value (“Chromatographic Purity: Sum” for short) ([5]; 0 month) was <0.05%, the “Chromatographic Purity: 4-Monobromo-cannabidiol” value ([5]; 1 month 5° C.) was <0.03% and the “Chromatographic Purity: Individual unspecified impurity” value ([5]; 1 month 5° C.) was <0.03%. For the same molecule, the “Chromatographic Purity: Olivetol” value ([5]; 1 month 5° C.) was <0.03%, the “Chromatographic Purity: Sum” value ([5]; 1 month 5° C.) was <0.05% and the “Chromatographic Purity: 4-Monobromo-cannabidiol” value ([5]; 1 month 25° C./60% RH) was <0.03%. The “Chromatographic Purity: Individual unspecified impurity” value ([5]; 1 month 25° C./60% RH) was <0.03%, the “Chromatographic Purity: Olivetol” value ([5]; 1 month 25° C./60% RH) was <0.03% and the “Chromatographic Purity: Sum” value ([5]; 1 month 25° C./60% RH) was <0.05%. The “Chromatographic Purity: 4-Monobromo-cannabidiol” value [5, 15] was <0.03%, the “Chromatographic Purity: Individual unspecified impurity” value [5, 15] was <0.03% and the “Chromatographic Purity: Olivetol” value [5, 15] was <0.03%. The “Chromatographic Purity: Sum” value [5, 15] was <0.05%, the “Chromatographic Purity: 4-Monobromo-cannabidiol” value ([5]; 1.5 months 25° C./60% RH) was <0.03% and the “Chromatographic Purity: Individual unspecified impurity” value ([5]; 1.5 months 25° C./60% RH) was <0.03%. For the same molecule, the “Chromatographic Purity: Olivetol” value ([5]; 1.5 months 25° C./60% RH) was <0.03%, the “Chromatographic Purity: Sum” value ([5]; 1.5 months 25° C./60% RH) was <0.05% and the “Chromatographic Purity: 4-Monobromo-cannabidiol” value [5, 16] was <0.03%. The “Chromatographic Purity: Individual unspecified impurity” value [5, 16] was <0.03%, the “Chromatographic Purity: Olivetol” value [5, 16] was <0.03% and the “Chromatographic Purity: Sum” value [5, 16] was <0.05%. The “Chromatographic Purity: 4-Monobromo-cannabidiol” value [5, 17] was <0.03%, the “Chromatographic Purity: Individual unspecified impurity” value [5, 17] was <0.03% and the “Chromatographic Purity: Olivetol” value [5, 17] was <0.03%. The “Chromatographic Purity: Sum” value [5, 17] was <0.05%, the “Chromatographic Purity: 4-Monobromo-cannabidiol” value [5, 18] was <0.03% and the “Chromatographic Purity: Individual unspecified impurity” value [5, 18] was <0.03%. For the same molecule, the “Chromatographic Purity: Olivetol” value [5, 18] was <0.03%, the “Chromatographic Purity: Sum” value [5, 18] was <0.05% and the “Chromatographic Purity: 4-Monobromo-cannabidiol” value [5, 19] was <0.03%. The “Chromatographic Purity: Individual unspecified impurity” value [5, 19] was <0.03%, the “Chromatographic Purity: Olivetol” value [5, 19] was <0.03% and the “Chromatographic Purity: Sum” value [5, 19] was <0.05%. For the same molecule, the “Chromatographic Purity: 4-Monobromo-cannabidiol” value ([5]; 6 months 25° C./60% RH) was <0.03%, the “Chromatographic Purity: Individual unspecified impurity” value ([5]; 6 months 25° C./60% RH) was <0.03% and the “Chromatographic Purity: Olivetol” value ([5]; 6 months 25° C./60% RH) was <0.03%. The “Chromatographic Purity: Sum” value ([5]; 6 months 25° C./60% RH) was <0.05%, the “Chromatographic Purity: 4-Monobromo-cannabidiol” value [5, 20] was <0.03% and the “Chromatographic Purity: Individual unspecified impurity” value [5, 20] was <0.03%. The “Chromatographic Purity: Olivetol” value [5, 20] was <0.03% and the “Chromatographic Purity: Sum” value [5, 20] was <0.05%.
